# Data reported in US20250116604A1, “FL[…] OF PERF[…] LIVING CULTURES OF A NEWLY ISOLATED P[…]. BACTERIUM” (The Government of the United States of America, as …, priority 2023, published 2025).
# Test system: Pseudomonas sp. CBR-F
# Experiment: Fluorescent response of living Pseudomonas sp. CBR-F cultures to perfluoroalkyl substances
# Format: cell-based
# Conditions: excitation 425 nm; for fluorescent response of Pseudomonas sp. CBR-F: R2A medium, 96 well plate, 12-16 hours at 30° C.; for fluorescent response of Pseudomonas sp. CBR-F / form of the fluorescence response versus concentration: emission 475 nm; for form of the fluorescence response versus concentration: log of concentration plotted against the measured fluorescence; for limit of detection: ppb (micrograms/liter), fluorescence at 475 nm
# Method: To perform an assay, CBR-F was inoculated into medium containing Reasoner's 2A medium (R2A) diluted from a 2× stock with the test sample in a 96 well plate. Internal standards using PFOA are run each time as a calibration curve. Following incubation for a number of hours (for example, 12-16 hours at 30° C.), fluorescence was measured at 475 nm with an excitation of 425 nm after the cultures have grown with shaking at 150 rpm for 15 hours using a 96 well plate reader with fluorescent capabilities. The log of PFOA concentration is plotted against the measured fluorescence, and a linear trend is calculated. The trendline formula is used to calculate PFOA/PFOS concentrations in the sample.
Compound,fluorescent response of Pseudomonas sp. CBR-F,form of the fluorescence response versus concentration,limit of detection
"O=C(O)C(F)(F)C(F)(F)C(F)(F)C(F)(F)C(F)(F)C(F)(F)C(F)(F)F [PFOA, perfluorooctanoic acid]",produces fluorescence,linear relative to the log,50 ppb
"O=S(=O)(O)C(F)(F)C(F)(F)C(F)(F)C(F)(F)C(F)(F)C(F)(F)C(F)(F)C(F)(F)F [PFOS, perfluorooctanesulfonic acid]",produces fluorescence,linear relative to the log,50 ppb
